Measurements as given in patent publication US9278978B2, “6-Alkynyl Pyridine” (Boehringer Ingelheim International GmbH, priority 2013, dated 2016).

These molecules were tested against cIAP1 BIR3 (Homo sapiens (Human), UniProt Q13490) (assay: cIAP1 BIR3 binding assay (DELFIA), BIR3 domain-SMAC peptide interaction). Conditions: not given.
Experimental: XIAP BIR3 and cIAP1 BIR3 Binding Assays (DELFIA)
Peptide […]-Lys(Biotin), representing the N-terminus of mature human SMAC(SMAC peptide), was used as interaction partner in the protein-peptide interaction assay.
BIR3 domains (10 nM) were incubated with SMAC peptide (10 nM) in assay buffer (50 mM Tris, 120 mM NaCl, 0.1% BSA, 1 mM DTT, 0.05% TritonX100) for one hour at room temperature in the presence of inhibitory compounds. The assay mixture was transferred to a strepatvidin coated plate and incubated for one hour at room temperature to allow binding of the biotinylated peptide and associated BIR3 domains to the plate. After several washing steps Eu labeled anti-GST antibody (e.g. Perkin Elmer DELFIA Eu-N1-antiGST AD0250) was added to detect BIR3 domain-SMAC peptide interactions according to Perkin Elmer's instructions. […] Time resolved Europium fluorescence was measured in a Wallac Victor using Standard assay settings.
DELFIA assay results were plotted against compound concentrations and Software GraphPad Prizm was used to calculate half maximal inhibitory concentrations (IC50 values).

| SMILES | IC50 |
| --- | --- |
| CNC(C)C(=O)Nc1cc(-c2ncnc3ncn(C)c23)cc(C#Cc2ccc3c(ccc(=O)n3C)c2)n1 (stereo not shown) [Example 8, N-{6-[2-(1-methyl-2-oxo-1,2-dihydroquinolin-6-yl)ethynyl]-4-(7-methyl-7H-purin-6-yl)pyridin-2-yl}-2-(methylamino)propanamide] | 1 nM |
| CNC(C)C(=O)Nc1cc(-c2ncnc3ncn(C)c23)cc(C#Cc2ccccc2)n1 (stereo not shown) [Example 7, N-[4-(7-methyl-7H-purin-6-yl)-6-(2-phenylethynyl)pyridin-2-yl]-2-(methylamino)propanamide] | 2 nM |
| CNC(C)C(=O)Nc1cc(-c2ncnc3ncn(C)c23)cc(C#Cc2ccc(-n3cnc(C)c3)cc2)n1 (stereo not shown) [Example 9, N-(6-{2-[4-(4-methyl-1H-imidazol-1-yl)phenyl]ethynyl}-4-(7-methyl-7H-purin-6-yl)pyridin-2-yl)-2-(methylamino)propanamide] | 2 nM |

Same assay, conditions: BIR3 domain 10 nM, SMAC peptide 10 nM; (S)-isomer (examples 1-34, 38-43) or racemate (examples 35-37); read-out: cIAP1 BIR-3 IC50

| SMILES | IC50 |
| --- | --- |
| CNC(C)C(=O)Nc1cc(-c2nc(C)nc3nn(C)c(C)c23)cc(C#Cc2cnc(-n3cnc(C)c3)nc2)n1 (stereo not shown) [Example 21, N-(6-{2-[2-(4-methyl-1H-imidazol-1-yl)pyrimidin-5-yl]ethynyl}-4-{trimethyl-2H-pyrazolo[3,4-d]pyrimidin-4-yl}pyridin-2-yl)-2-(methyl-amino)propanamide] | 1 nM |
| CNC(C)C(=O)Nc1cc(-c2ccncc2)c(-c2cncnc2)c(C#Cc2ccccc2)n1 (racemic) [Example 35, 2-(methylamino)-N-[6-(2-phenylethynyl)-4-(pyridin-4-yl)-5-(pyrimidin-5-yl)pyridin-2-yl]propanamide] | 250 nM |
| CNC(C)C(=O)Nc1cc(-c2nc(C)nc3nn(C)c(C)c23)cc(C#Cc2ccc3c(C)nccc3c2)n1 (stereo not shown) [Example 18, 2-(methylamino)-N-{6-[2-(1-methylisoquinolin-6-yl)ethynyl]-4-{trimethyl-2H-pyrazolo[3,4-d]pyrimidin-4-yl}pyridin-2-yl}-propanamide] | 1 nM |
| CNC(C)C(=O)Nc1cc(-c2ncnc3c(C)nn(C)c23)cc(C#Cc2ccc(-n3cnc(C)c3)cc2)n1 (stereo not shown) [Example 41, N-(4-{1,3-dimethyl-1H-pyrazolo[4,3-d]pyrimidin-7-yl}-6-{2-[4-(4-methyl-1H-imidazol-1-yl)phenyl]-ethynyl}pyridin-2-yl)-2-(methylamino)propanamide] | 1 nM |
| CNC(C)C(=O)Nc1cc(-c2ncnc3c(C)nn(C)c23)cc(C#Cc2cnc3c(cnn3C)c2)n1 (stereo not shown) [Example 43, N-(4-{1,3-dimethyl-1H-pyrazolo[4,3-d]pyrimidin-7-yl}-6-(2-{1-methyl-1H-pyrazolo[3,4-b]pyridin-5-yl}ethynyl)pyridin-2-yl)-2-(methylamino)propanamide] | 1 nM |
| CNC(C)C(=O)Nc1cc(-c2nc(C)nc3nn(C)c(C)c23)cc(C#Cc2ccc3c(ccc(=O)n3C)c2)n1 (stereo not shown) [Example 19, N-{6-[2-(1-methyl-2-oxo-1,2-dihydroquinolin-6-yl)ethynyl]-4-{trimethyl-2H-pyrazolo[3,4-d]pyrimidin-4-yl}pyridin-2-yl}-2-(methylamino)propanamide] | 2 nM |
| CNC(C)C(=O)Nc1cc(-c2ncnc3oc(C)c(C)c23)cc(C#Cc2ccccc2)n1 (stereo not shown) [Example 10, N-(4-{5,6-dimethylfuro[2,3-d]pyrimidin-4-yl}-6-(2-phenylethynyl)pyridin-2-yl)-2-(methylamino)propanamide] | 2 nM |
| CNC(C)C(=O)Nc1cc(-c2ncnc3c(C)nn(C)c23)cc(C#Cc2ccc3c(C)nccc3c2)n1 (stereo not shown) [Example 2, N-(4-{1,3-dimethyl-1H-pyrazolo[4,3-d]pyrimidin-7-yl}-6-[2-(1-methylisoquinolin-6-yl)ethynyl]pyridin-2-yl)-2-(methylamino)propanamide] | 1 nM |
| CNC(C)C(=O)Nc1cc(-c2ccc(OC)nc2)cc(C#Cc2ccccc2)n1 (stereo not shown) [Example 31, N-[4-(6-methoxypyridin-3-yl)-6-(2-phenylethynyl)pyridin-2-yl]-2-(methylamino)propanamide] | 325 nM |
| CNC(C)C(=O)Nc1cc(-c2nc(C)nc3nn(C)c(C)c23)cc(C#Cc2cccs2)n1 (stereo not shown) [Example 22, 2-(methylamino)-N-{6-[2-(thiophen-2-yl)ethynyl]-4-{trimethyl-2H-pyrazolo[3,4-d]pyrimidin-4-yl}pyridin-2-yl}propanamide] | 1 nM |
| CNC(C)C(=O)Nc1cc(-c2cccc3cnn(C)c23)cc(C#Cc2ccc3c(c2)CC(=O)N3C)n1 (stereo not shown) [Example 12, N-[4-(1-methyl-1H-indazol-7-yl)-6-[2-(1-methyl-2-oxo-2,3-dihydro-1H-indol-5-yl)ethynyl]pyridin-2-yl]-2-(methylamino)propanamide] | 11 nM |
| CNC(C)C(=O)Nc1cc(-c2nc(C)nc3nn(C)c(C)c23)cc(C#Cc2ccc3c(cnn3C)c2)n1 (stereo not shown) [Example 20, N-{6-[2-(1-methyl-1H-indazol-5-yl)ethynyl]-4-{trimethyl-2H-pyrazolo[3,4-d]pyrimidin-4-yl}pyridin-2-yl}-2-(methylamino)-propanamide] | 1 nM |
| CNC(C)C(=O)Nc1cc(-c2cccc3nc(C)c(C)n23)cc(C#Cc2ccc3c(C)nccc3c2)n1 (stereo not shown) [Example 11, N-(4-{2,3-dimethylimidazo[1,2-a]pyridin-5-yl}-6-[2-(1-methylisoquinolin-6-yl)ethynyl]pyridin-2-yl)-2-(methylamino)propanamide] | 1 nM |
| CNC(C)C(=O)Nc1cc(-c2ccncc2)cc(C#Cc2ccccc2)n1 (stereo not shown) [Example 28, 2-(methylamino)-N-[6-(2-phenylethynyl)-4-(pyridin-4-yl)pyridin-2-yl]propanamide] | 282 nM |
| CNC(C)C(=O)Nc1cc(-c2ncnc3c(C)nn(C)c23)cc(C#Cc2ccc3nc(C)ccc3c2)n1 (stereo not shown) [Example 38, N-(4-{1,3-dimethyl-1H-pyrazolo[4,3-d]pyrimidin-7-yl}-6-[2-(2-methylquinolin-6-yl)ethynyl]pyridin-2-yl)-2-(methylamino)propanamide] | 1 nM |
| CNC(C)C(=O)Nc1cc(-c2cccnc2)cc(C#Cc2ccccc2)n1 (stereo not shown) [Example 34, 2-(methylamino)-N-[6-(2-phenyethynyl)-4-(pyridin-3-yl)pyridin-2-yl]propanamide] | 250 nM |
| CNC(C)C(=O)Nc1cc(-c2cccc3cnn(C)c23)c(Cl)c(C#Cc2ccc3c(C)nccc3c2)n1 (stereo not shown) [Example 24, N-[5-chloro-4-(1-methyl-1H-indazol-7-yl)-6-[2-(1-methylisoquinolin-6-yl)ethynyl]pyridin-2-yl]-2-(methylamino)propanamide] | 12 nM |
| CNC(C)C(=O)Nc1cc(-c2ccccc2F)cc(C#Cc2ccccc2)n1 (stereo not shown) [Example 32, N-[4-(2-fluorophenyl)-6-(2-phenylethynyl)pyridin-2-yl]-2-(methylamino)propanamide] | 4010 nM |
| CNC(C)C(=O)Nc1cc(-c2ncnc3c(C)nn(C)c23)cc(C#Cc2cc(C)nc(C)c2)n1 (stereo not shown) [Example 39, N-(4-{1,3-dimethyl-1H-pyrazolo[4,3-d]pyrimidin-7-yl}-6-[2-(2,6-dimethyl-pyridin-4-yl)ethynyl]pyridin-2-yl)-2-(methylamino)-propanamide] | 1 nM |
| CNC(C)C(=O)Nc1cc(-c2cccnc2)c(-c2cncnc2)c(C#Cc2ccccc2)n1 (racemic) [Example 36, 2-(methylamino)-N-[6-(2-phenylethynyl)-4-(pyridin-3-yl)-5-(pyrimidin-5-yl)-pyridin-2-yl]propanamide] | 172 nM |
| CNC(C)C(=O)Nc1cc(-c2ncnc3c(C)nn(C)c23)cc(C#Cc2ccc3c(cnn3C)c2)n1 (stereo not shown) [Example 1, N-(4-{1,3-dimethyl-1H-pyrazolo[4,3-d]pyrimidin-7-yl}-6-[2-(1-methyl-1H-indazol-5-yl)ethynyl]pyridin-2-yl)-2-(methylamino)propanamide] | 1 nM |
| CNC(C)C(=O)Nc1cc(-c2ncnc3c(C)nn(C)c23)cc(C#Cc2cc(F)cc(F)c2)n1 (stereo not shown) [Example 40, N-{6-[2-(3,5-difluorophenyl)ethynyl]-4-{1,3-dimethyl-1H-pyrazolo[4,3-d]pyrimidin-7-yl}pyridin-2-yl}-2-(methyl-amino)propanamide] | 1 nM |
